Patent publication US7608246B2 (The Brigham and Women's Hospital, Inc., priority 2005, dated 2009)

Key:
[1] = test system: LDL-R; test: ApoB competition at the LDL-R: DC pulsed with free GGC or apoE-GGC, activation of αGC reactive T cells; format: cell-based, human; details: increasing amounts of apoB
Method: C) Free GGC or apoE-GGC was pulsed onto DC in the presence of increasing concentrations of apoB, and the subsequent activation of αGC reactive T cells was measured. There was no effect of apoB on PHA-stimulation of T cells. All data are representative of at least three experiments.
In a second approach, advantage was taken of the fact that apoB, the primary component of LDL, also binds to the LDL-R and can serve as a competitive ligand, while not binding LRP (Beisiegel et al., Nature 341:162-4 (1989)). […] As controls, increasing amounts of apoB had no effect on the dose response to free GGC (FIG. 3C) or on the PHA induced T cell response.

[2] = test system: TT-reactive clone; format: cell-based
[3] = test system: CD1d-reactive T cells; test: T cell reactivity to GGC in apoE-depleted human serum; format: cell-based; details: compared to normal human serum
Source text: Data are means of triplicate samples +/−SEM and are representative of four independent experiments using two separate apoE depletion columns and varying doses of antigen. Statistics reflect all doses in all experiments: *p<0.001, **p<0.001, ***p<0.01.

[4] = test system: αGC reactive T cells; test: ApoE enhancement of GGC reactivity: DC pulsed, co-cultured with αGC reactive T cells, IFNγ ELISA; format: cell-based, human; details: for increase of antigenic potency of GGC: compared to freshly sonicated free GGC or GGC with HDL, LDL or albumin
Method: Sonicated GGC was incubated with the indicated components in serum-free media with 4 mg/ml bovine serum albumin (BSA) as a carrier for 1-2 hours (or freshly sonicated) before pulsing DC and co-culturing with αGC reactive T cells in media supplemented with 2% human serum. IFNγ was measured in 16-24 hours by ELISA.
C) Dose-dependence of apoE.

[5] = test system: CD1c; test: CD1c presented antigen T cell stimulation with or without apoE; format: cell-based; details: versus without apoE
[6] = test system: CD1b-restricted T cell line LDN5; test: CD1b restricted T cell response to mycobacterial lipid antigens with or without apoE; format: cell-based; details: versus without apoE
Source text: D) Enhancement of a CD1b dependent T cell response against foreign antigens.

[7] = target: apoE (Homo sapiens, UniProt P02649); test: ApoE-GGC binding, heparin affinity column
Method: A) ApoE-GGC binding. […] Fractions were assayed for antigenic activity as in FIG. 1. There was no difference in non-specific loss to the column. Data are representative of at least six separate experiments.

[8] = test system: DC; test: Rapidity of lipid antigen uptake: DC pulsed for varying times, then T cell stimulation; format: cell-based, human; details: free lipid in media alone
Method: A) ApoE enhances the efficiency of presentation of GGC. […] GGC (solid squares and striped bars) or sonicated free GGC (open triangles and open bars) was incubated with DC in serum-free media with 4 mg/ml BSA for the indicated times before washing and testing the ability to stimulate T cells as described in FIGS. 1 and 2. Upper panel: Dose response curve of GGC for 2 minute pulse. Lower panel: Various pulse times are shown for 50 ng/ml GGC.
To determine the rapidity and efficiency of lipid uptake into DC, free lipid antigen or apoE-bound lipid antigen was used to pulse DC for varying times before washing the cells and assaying their subsequent ability to present antigen to T cells.

[9] = test system: αGC-reactive NKT cells; test: Response to intravenous GGC in apoE-deficient mice (intracellular IFNγ of CD1d tetramer positive cells); format: in vivo; details: 200 ng GGC or 1.5 μg anti-CD3
Source text: Spleens and livers were harvested and TcRβ-positive, CD19-negative, CD1d tetramer positive cells analyzed for intracellular IFNγ production by flow cytometry.
This was not due to a nonspecific deficit of T cell reactivity, since intravenous administration of anti-CD3 antibodies activated αGC reactive T cells similarly in both apoE-deficient mice and controls. Thus, apoE plays a crucial role in the in vivo presentation of an exogenous lipid antigen.

[10] = test system: αGC-reactive NKT cells; test: Response to intravenous GGC in LDL-R deficient mice; format: in vivo; details: 200 ng GGC or 1.5 μg anti-CD3
Method: D) LDLR−/− and matched wild type controls were challenged intravenously with 200 ng GGC, 1.5 μg anti-CD3 or vehicle as described in FIG. 1D. Shown are results from spleen, with similar results in the liver. Represents two separate experiments with 10 LDLR−/− and 10 wild type mice.
Finally, the response to GGC in LDL-R deficient mice was examined. […] Thus, it was concluded that the LDL-R plays a major role in the uptake of apoE-lipid antigen complexes and presentation by CD1.

apoE, sequence (P02649 19-317): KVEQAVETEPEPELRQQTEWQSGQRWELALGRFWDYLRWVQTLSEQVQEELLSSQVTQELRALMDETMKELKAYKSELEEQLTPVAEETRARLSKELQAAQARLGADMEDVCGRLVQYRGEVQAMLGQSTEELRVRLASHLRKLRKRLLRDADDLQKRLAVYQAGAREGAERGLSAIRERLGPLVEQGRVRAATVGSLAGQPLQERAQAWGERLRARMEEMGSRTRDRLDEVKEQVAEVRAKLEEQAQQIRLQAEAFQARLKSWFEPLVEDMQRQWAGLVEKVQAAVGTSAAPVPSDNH

Substance: apolipoprotein B [apoB]
- effect on antigen presentation by DC pulsed with apoE-GGC [1]: dose-dependent diminution
- effect on dose response to free GGC or PHA induced T cell response [1]: no effect

Substance: apolipoprotein E [apoE]
- effect on MHC class II restricted response to tetanus toxoid [2]: no effect
- capacity of serum incubated with GGC to stimulate T cells [3]: recovered
- effect on control T cell stimulators (CD3, PHA or PMA/ionomycin) ([4]; increasing the concentration of apoE): no effect

Substance: manosyl-phosphomycoketide
- T cell stimulation by CD1c presented antigen complexed with apoE [5]: significantly more efficient

Substance: VLDL-derived apoE: apoE derived from VLDL
- increase of antigenic potency of GGC [4]: ~50 fold

Substance: Glucose monomycolate
- CD1b restricted T cell activation when complexed with apoE [6]: more efficient

Substance: galactosyl(α1-2)galactosyl ceramide [GGC]
- binding of GGC to apoE ([7]; 10 minute incubation at room temperature): all detectable lipid antigen remained bound to apoE
- GGC bound to apoE ([7]; in the presence of a 500-fold excess of albumin): greater than 95%
- time required to achieve maximal stimulation [8]: 4 to 6 h
- maximal stimulation relative to that achieved in 2 minutes with apoE ([8]; 4-6 hours): 48% (+/−11%)
- response in apoE-deficient mice versus wild type controls [9]: drastically reduced
- response in LDL-R knockouts versus wild type controls [10]: greatly diminished response

Substance: mycolic acid
- CD1b restricted T cell activation when complexed with apoE [6]: more efficient

Substance: recombinant apoE: recombinant apoE
- increase of antigenic potency of GGC [4]: ~50 fold
